These results are taken from patent US20070134282A1, “Methods for inhibiting fungal pathogen infestation and propogation” (Stephen F. Austin State University, priority 2005, published 2007).

Experiment [1] concerns F. verticillioides. The following applies: cited from earlier work.
The subject of experiment [2] is Alternaria alternata. The experiment is described as follows: mycelial growth inhibition on potato dextrose agar. The format is cell-based. As to the method: (§1) Alternaria alternata, Epicoccum nigrum, Pestalotia guepinii, Drechslera sp., and Fusarium avenaceum were isolated from infected leaves and roots of C. acuminata. The strains were cultured and maintained on potato dextrose agar (PDA) medium.
(§2) CPT, trifolin, and hyperoside (isolated from Camptotheca as above) were tested for their ability to inhibit these fungi, as compard with two classical fungicides, Bravo (active ingredient: chlorothalonil) and Maneb (active ingredient: manganous ethylenebis [dithiocarbamate]), as references. The concentrations of the conventional fungicides were those recommended by the manufacturers (Bravo: 10,000 μg/mL; Maneb: 3,000 μg/mL).
(§3) In addition to a negative control (0) and two fungicides as positive controls for each of the five isolated pathogens, seven levels of CPT were tested with each of the fungi and three levels of trifolin and hyperoside were tested with P. guepinii, Drechslera sp. and F. avenaceum, respectively (see FIG. 8).
(§4) Trifolin and hyperoside treatments were applied at concentrations of 50, 100, and 150 μg/mL, respectively. For all cultures, final concentrations were made in molten (50° C.) potato dextrose agar (Difco), and 10 mL aliquots were poured into Petri dishes (85 mm in diameter). Within 24 hours after pouring, each of the plates was inoculated with one of the five fungi. One 5×5 mm mycelial plug was cut from the actively growing front of a 2 week old colony, then placed with the inoculum side down in the center of each treatment plate. The cultures were incubated at 24° C. For all experiments, five replicate plates were inoculated for each treatment.
(§5) Mycelial growth on each plate was observed daily and recorded on a transparent film for the first two weeks, then recorded on the 16th, 20th, 23rd, and 28th days. Colony radii were measured along four vertical radial directions. The mean of the four measurements was calculated as the growth rate on each plate. Mean and standard error were calculated from the five replicates of each treatment. For each of the fungi, values of EC50 (effective concentration that caused 50% inhibition of mycelial growth) and MIC (the minimum inhibitory concentration) of each compound were estimated.

In experiment [3] the test system is Drechslera sp. The experiment is described as follows: mycelial growth inhibition on potato dextrose agar. The note with it: for EC50: estimated; for inhibiting fungus: at all experimental concentrations; for inhibition at 50 µg/mL: 480 h, 50 μg/mL, day 20, read-out: colonies inhibited. The format is cell-based. As to the method:
as §1, §2, §3, §4, §5

In experiment [4] the test system is Epicoccum nigrum. Put plainly: mycelial growth inhibition on potato dextrose agar. Format: cell-based. The protocol: as §1, §2, §3, §4, §5
Experiment [5] relates to Fusarium avenaceum. The experiment is described as follows: mycelial growth inhibition on potato dextrose agar. The format is cell-based. The note with it: for inhibition at 10 µg/mL: read-out: inhibition of mycelial growth, CPT 10 μg/mL; for inhibiting fungus: at all experimental concentrations; for inhibition at 50 µg/mL / inhibition at 100 µg/mL: 672 h, day 28, read-out: inhibited fungal growth; for inhibition at 50 µg/mL: 50 μg/mL; for inhibition at 100 µg/mL: 100 μg/mL; for EC50: F. avenaceum, estimated, read-out: EC50 (effective concentration that caused 50% inhibition of mycelial growth). The protocol: as §1, §2, §3, §4, §5

In experiment [6] the test system is Pestalotia guepinii. Put plainly: mycelial growth inhibition on potato dextrose agar. The format is cell-based. The protocol: as §1, §2, §3, §4, §5
The test system of experiment [7] is Pestalotia guepinii. The experiment is described as follows: mycelial growth inhibition on potato dextrose agar. Format: cell-based. The following applies: for EC50: read-out: EC50 (effective concentration that caused 50% inhibition of mycelial growth); for MIC: read-out: MIC (minimal inhibitory concentration); for inhibition at 50 µg/mL: 264 h, 50 μg/mL, day 11, read-out: colonies inhibited.

The subject of experiment [8] is Fusarium avenaceum. The experiment is described as follows: mycelial growth inhibition on potato dextrose agar. The format is cell-based. The following applies: in vitro; at the same concentrations as the dithiocarbamate (100 ppm).
In experiment [9] the test system is F. oxysporum f. sp. lini. The note with it: 100 ppm (100 μg/mL); cited from earlier work.
For experiment [10], the system named is Botrytis cinerea. The following applies: in vitro tests and TLC bioautography; Sridhar et al. (2003); cited from earlier work.
Experiment [11] has as its system Alternaria mali. The following applies: mycelial growth; cited from earlier work.
Experiment [12] relates to F. oxysporum f.sp. lycopersici. The note with it: mycelial growth; cited from earlier work.
[13] abbreviates: at relatively higher concentrations.
[14] abbreviates: Drechslera sp., read-out: EC50 (effective concentration that caused 50% inhibition of mycelial growth).

≈ marks a conversion by molar mass, not a printed value. Where two headings read alike, the source gives them in different places.

Turning to `COc1cc([C@H]2OC[C@H]3[C@@H]2CO[C@H]3c2ccc(O)c(OC)c2)ccc1O` (racemic) [(±) pinoresinol], the MIC in [1] is on record as 1,000 μg/mL.

In the case of `COc1cc(C=CC=O)ccc1O` [4-hydroxy-3-methoxycinnamaldehyde], in [1], the MIC is 400 µg/mL (≈ 2240 µM).

On to `CC[C@@]1(O)C(=O)OCc2c1cc1n(c2=O)Cc2cc3ccccc3nc2-1` [CPT, 4(S)-4-ethyl-4-hydroxy-1H-pyrano-(3′,4′:6,7) indolizino (1,2,-b) quinoline-3,14 (4H,12H)-dione], for which the EC50 is < 25 µg/mL in [2] (Alternaria alternata, read-out: EC50 (effective concentration that caused 50% inhibition of mycelial growth)); ~10 µg/mL (≈ 28.7 µM) in experiment [3] (Drechslera, read-out: EC50 (effective concentration that caused 50% inhibition of mycelial growth), Drechslera sp.); ~10 µg/mL (≈ 28.7 µM) in experiment [4] (Epicoccum nigrum, read-out: EC50 (effective concentration that caused 50% inhibition of mycelial growth), E. nigrum, estimated); ~10 µg/mL (≈ 28.7 µM) in experiment [7]. Besides, the MIC in [2] (Alternaria alternata, A. alternata, read-out: MIC (minimal inhibitory concentration)) worked out at 75 µg/mL (≈ 215 µM); in experiment [3] (Drechslera, read-out: MIC (minimal inhibitory concentration)) it was 100 µg/mL (≈ 287 µM); in experiment [4] (Epicoccum nigrum, E. nigrum, read-out: MIC (minimal inhibitory concentration)) it was 75 µg/mL (≈ 215 µM); in experiment [5] (Fusarium avenaceum, read-out: MIC (minimal inhibitory concentration; complete inhibition)) it was 125 µg/mL (≈ 359 µM); in experiment [7], 125 µg/mL (≈ 359 µM). Besides, the inhibition at 10 µg/mL in [2] (Alternaria alternata, CPT 10 μg/mL, read-out: colonies inhibited) was 41 to 66%; in experiment [5] (Fusarium avenaceum, first several days of the experiment), 70 to 80%; in experiment [5] (Fusarium avenaceum, later stages), ~40%. In addition, the “days for mycelium to completely cover the agar surface” value in experiment [2] (CPT 10 μg/mL, control 13 days) came out at 23 days. Further, the “day colonies started to grow” value in experiment [2] (CPT 25 μg/mL) is “second day”. Moreover, in experiment [2] (CPT 25 μg/mL, 28 days vs. 13 days for control), the colony expansion reduced is recorded as 215%. Besides, the “days to cover the agar surface” value in [2] (CPT 25 μg/mL, control 13 days) came to 28 days. Moreover, the “colonies smaller than controls” value is reported as 52.8% in experiment [2] (CPT 25 μg/mL, day 13) and 65% in experiment [4] (CPT 10 μg/mL, day 10). In addition, the “control of fungal growth” value in experiment [2] (CPT 75 μg/mL and above) is “totally controlled”. For the same compound, the “suppressing growth” value in [2] (setting [13]) and in experiment [4] (setting [13]) was “effective” each time. In addition, the “growth inhibition” value in experiment [3] (CPT 100 μg/mL and higher) was “completely inhibited fungal growth”; in experiment [4] (CPT 75 μg/mL and higher), “totally inhibited growth”; in experiment [5] (CPT 125 and 150 μg/mL), “completely inhibited growth”; in [6] (CPT 125 μg/mL and above), “totally inhibited growth”. Further, in [3] (CPT at all experimental levels (10-150 μg/mL) vs Bravo 10,000 μg/mL), the “inhibition compared with Bravo” value is “greater inhibition rates than Bravo”. The “inhibiting fungus” value in experiment [3] and in experiment [5] was “highly effective” in each case. In experiment [4] (CPT 10 μg/mL and 25 μg/mL, 28 days vs. 10 days for control), the delayed mycelial growth was found to be 280%. The “days to cover agar surface” value in [4] (CPT 10 μg/mL and 25 μg/mL, control 10 days) is reported as 28 days. Moreover, the colony radii in experiment [4] (CPT 25 μg/mL, day 15) is 20 mm; in experiment [4] (CPT 50 μg/mL, day 20), 8 mm. The compound further registered a day growth began in experiment [4] (CPT 50 μg/mL) of 8th day. In addition, in experiment [4] (Epicoccum nigrum, CPT 50 μg/mL, read-out: inhibited growth), the inhibition at 50 µg/mL was > 90%. For the same compound, the inhibition at 30 µg/mL in experiment [5] (Fusarium avenaceum, read-out: inhibited the rate of mycelial growth, CPT 30 μg/mL) is > 60%. The compound also yielded a reduced mycelial growth in experiment [6] (CPT 10 μg/mL, 11th day) of 43.5%. Besides, in experiment [6] (CPT 10 μg/mL, control 11th day), the “day colonies reached the petri dish margins” value came out at 20 days. In experiment [8], the inhibited growth stood at 70%.

As for `CCN(CC)C(=S)[S-].[Na+]` [N,N-diethyldithiocarbamic acid sodium salt], in experiment [9], the inhibit growth was 7-30%.

Regarding `COc1cc(C=O)ccc1O` [Vanillin], the MIC in experiment [1] is 600 µg/mL (≈ 3940 µM).

Turning to `CC(C)=CCC/C(C)=C/CO` [geraniol], the “minimum concentration (MIC)” value in experiment [10] was 160 µg/mL.

Turning to `O=c1c(O[C@@H]2O[C@H](CO)[C@H](O)[C@H](O)[C@H]2O)c(-c2ccc(O)c(O)c2)oc2cc(O)cc(O)c12` [hyperoside, quercetin-3-O-β-D-galactopyranoside], the “growth inhibition” value in [3] (100 μg/mL, 28-day experiment) is “little growth by day 28”; in experiment [3] (150 μg/mL) it was “completely inhibited growth”; in [5] (150 μg/mL), “completely inhibited fungal growth during the first four weeks”. Also, the EC50 is < 50 µg/mL in experiment [3] (setting [14]); 50 to 100 µg/mL (≈ 108 to 215 µM) in experiment [5] (Fusarium avenaceum); ~50 µg/mL (≈ 108 µM) in experiment [7] (P. guepinii, estimated). For the same compound, the inhibition at 50 µg/mL in experiment [3] (Drechslera) was determined as 74.3%; in [5] (Fusarium avenaceum), 31.6%; in experiment [7] it was 53.8%. Besides, the “inhibiting fungus” value in experiment [3] and in experiment [5] was “highly effective” throughout. For the same compound, the inhibition at 100 µg/mL in [5] (Fusarium avenaceum) was 72.6%. For the same compound, the MIC in experiment [7] (P. guepinii) was < 125 µg/mL. The compound also came in with an inhibited growth in [8] of 70%.

Take `O=c1c(O[C@@H]2O[C@H](CO)[C@H](O)[C@H](O)[C@H]2O)c(-c2ccc(O)cc2)oc2cc(O)cc(O)c12` [trifolin, kaempferol-3-O-β-D-galactopyranoside]: the “growth inhibition” value is “totally controlled the fungus” in experiment [3] (100 μg/mL, 28-day experiment); “completely inhibited growth” in [3] (150 μg/mL); “totally controlled the fungus during the entire experiment” in experiment [5] (150 μg/mL). The EC50 in experiment [3] (setting [14]) was < 50 µg/mL; in experiment [5] (Fusarium avenaceum), 50 to 100 µg/mL (≈ 112 to 223 µM); in experiment [7] (P. guepinii, estimated), ~50 µg/mL (≈ 112 µM). Further, the inhibition at 50 µg/mL is 76.1% in [3] (Drechslera), 35.8% in experiment [5] (Fusarium avenaceum) and 53.4% in experiment [7]. The “inhibiting fungus” value in [3] and in experiment [5] was “highly effective” each time. Besides, in [5] (Fusarium avenaceum), the inhibition at 100 µg/mL was 74.8%. Further, in [7] (P. guepinii), the MIC was < 125 µg/mL. In experiment [8], this compound gave an inhibited growth of 70%.

As for `C/C=C\c1cc(OC)c(OC)cc1OC` [β-Asarone], the MIC in [11] and in experiment [12] was > 100 µg/mL in each case.
